In ChEMBL document CHEMBL5523701, “Structure-based discovery of small molecule inhibitors of FKBP51-Hsp90 protein-protein interaction” (Eur J Med Chem, 2024):

Tests used:
[1] = biological target: T1, DnaJ homolog subfamily C member 7 (Homo sapiens, UniProt Q99615); test: Inhibition of GST-tagged human DNAJC7 expressed in Escherichia coli BL21 (DE3) using NH2-EDASRMEEVD-COOH peptide as substrate preincubated for 15 mins followed by substrate addition measured after 15 mins by Alpha Screen assay
T1 sequence (Q99615 whole entry): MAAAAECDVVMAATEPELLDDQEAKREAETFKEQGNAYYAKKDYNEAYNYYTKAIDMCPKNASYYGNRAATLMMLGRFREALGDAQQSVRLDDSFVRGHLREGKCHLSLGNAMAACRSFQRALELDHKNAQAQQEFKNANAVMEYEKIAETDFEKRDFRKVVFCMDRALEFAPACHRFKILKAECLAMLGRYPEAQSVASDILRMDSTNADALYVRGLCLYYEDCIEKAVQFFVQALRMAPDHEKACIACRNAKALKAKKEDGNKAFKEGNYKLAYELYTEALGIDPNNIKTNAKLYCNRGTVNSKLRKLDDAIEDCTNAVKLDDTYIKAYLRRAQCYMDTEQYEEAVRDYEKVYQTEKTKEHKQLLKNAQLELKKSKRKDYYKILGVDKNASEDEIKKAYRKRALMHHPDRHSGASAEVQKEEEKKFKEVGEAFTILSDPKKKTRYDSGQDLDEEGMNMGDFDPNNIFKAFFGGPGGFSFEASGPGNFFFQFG

[2] = biological target: T2, Aryl-hydrocarbon-interacting protein-like 1 (Homo sapiens, UniProt Q9NZN9); test: Inhibition of GST-tagged human AIPL1 expressed in Escherichia coli BL21 (DE3) using NH2-EDASRMEEVD-COOH peptide as substrate preincubated for 15 mins followed by substrate addition measured after 15 mins by Alpha Screen assay
T2 sequence (Q9NZN9 whole entry): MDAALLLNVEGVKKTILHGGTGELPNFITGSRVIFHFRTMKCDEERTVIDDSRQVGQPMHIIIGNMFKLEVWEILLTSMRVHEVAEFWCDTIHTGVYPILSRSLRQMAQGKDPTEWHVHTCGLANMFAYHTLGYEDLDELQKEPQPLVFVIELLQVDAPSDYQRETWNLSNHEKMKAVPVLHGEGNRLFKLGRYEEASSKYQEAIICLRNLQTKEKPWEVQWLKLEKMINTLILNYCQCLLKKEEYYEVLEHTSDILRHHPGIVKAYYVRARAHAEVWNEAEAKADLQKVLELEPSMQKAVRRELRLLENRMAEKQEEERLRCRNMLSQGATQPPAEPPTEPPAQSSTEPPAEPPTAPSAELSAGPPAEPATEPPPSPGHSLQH

[3] = biological target: T3, AH receptor-interacting protein (Homo sapiens, UniProt O00170); test: Inhibition of GST-tagged human AIP expressed in Escherichia coli BL21 (DE3) using NH2-EDASRMEEVD-COOH peptide as substrate preincubated for 15 mins followed by substrate addition measured after 15 mins by Alpha Screen assay
T3 sequence (O00170 whole entry): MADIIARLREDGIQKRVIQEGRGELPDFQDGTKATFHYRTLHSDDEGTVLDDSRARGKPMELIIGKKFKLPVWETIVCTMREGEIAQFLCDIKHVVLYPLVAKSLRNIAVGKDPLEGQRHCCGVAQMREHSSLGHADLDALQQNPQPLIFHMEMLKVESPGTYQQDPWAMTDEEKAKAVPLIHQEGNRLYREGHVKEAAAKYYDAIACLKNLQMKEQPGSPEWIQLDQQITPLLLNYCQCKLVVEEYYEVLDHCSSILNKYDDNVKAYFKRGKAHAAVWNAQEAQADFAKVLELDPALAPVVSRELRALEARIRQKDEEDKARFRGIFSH

[4] = biological target: Peptidyl-prolyl cis-trans isomerase FKBP8 (Homo sapiens, UniProt Q14318); test: Inhibition of GST-tagged human FKBP38 expressed in Escherichia coli BL21 (DE3) using NH2-EDASRMEEVD-COOH peptide as substrate preincubated for 15 mins followed by substrate addition measured after 15 mins by Alpha Screen assay
[5] = biological target: T4, Peptidyl-prolyl cis-trans isomerase FKBP5 (Homo sapiens, UniProt Q13451); test: Inhibition of GST-tagged human FKBP51 expressed in Escherichia coli BL21 (DE3) using NH2-EDASRMEEVD-COOH peptide as substrate preincubated for 15 mins followed by substrate addition measured after 15 mins by Alpha Screen assay
T4 sequence (Q13451 whole entry): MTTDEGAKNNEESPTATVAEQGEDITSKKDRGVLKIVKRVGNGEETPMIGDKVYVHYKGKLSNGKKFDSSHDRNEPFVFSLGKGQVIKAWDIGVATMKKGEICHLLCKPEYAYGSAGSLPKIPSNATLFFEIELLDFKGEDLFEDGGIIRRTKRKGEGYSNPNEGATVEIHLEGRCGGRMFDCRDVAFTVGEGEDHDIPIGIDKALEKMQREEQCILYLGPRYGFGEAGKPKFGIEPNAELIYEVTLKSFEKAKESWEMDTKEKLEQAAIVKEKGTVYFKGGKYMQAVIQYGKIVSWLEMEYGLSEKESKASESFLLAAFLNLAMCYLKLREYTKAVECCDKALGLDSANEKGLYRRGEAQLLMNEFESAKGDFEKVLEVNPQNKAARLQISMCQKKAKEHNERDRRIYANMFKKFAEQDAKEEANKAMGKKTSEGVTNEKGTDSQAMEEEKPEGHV

[6] = biological target: T4, Peptidyl-prolyl cis-trans isomerase FKBP5; test: Binding affinity to GST-tagged human FKBP51 expressed in Escherichia coli BL21 (DE3) immobilized in CM7 sensor chip assessed as equilibrium dissociation constant by SPR analysis
[7] = Inhibition of GST-tagged FKBP51 N381Y mutant (unknown origin) using NH2-EDASRMEEVD-COOH peptide as substrate preincubated for 15 mins followed by substrate addition measured after 15 mins by Alpha Screen assay; parameters: species or system Homo sapiens
[8] = biological target: T5, Peptidyl-prolyl cis-trans isomerase FKBP4 (Homo sapiens, UniProt Q02790); test: Binding affinity to GST-tagged human FKBP52 expressed in Escherichia coli BL21 (DE3) immobilized in CM7 sensor chip assessed as equilibrium dissociation constant by SPR analysis
T5 sequence (Q02790 whole entry): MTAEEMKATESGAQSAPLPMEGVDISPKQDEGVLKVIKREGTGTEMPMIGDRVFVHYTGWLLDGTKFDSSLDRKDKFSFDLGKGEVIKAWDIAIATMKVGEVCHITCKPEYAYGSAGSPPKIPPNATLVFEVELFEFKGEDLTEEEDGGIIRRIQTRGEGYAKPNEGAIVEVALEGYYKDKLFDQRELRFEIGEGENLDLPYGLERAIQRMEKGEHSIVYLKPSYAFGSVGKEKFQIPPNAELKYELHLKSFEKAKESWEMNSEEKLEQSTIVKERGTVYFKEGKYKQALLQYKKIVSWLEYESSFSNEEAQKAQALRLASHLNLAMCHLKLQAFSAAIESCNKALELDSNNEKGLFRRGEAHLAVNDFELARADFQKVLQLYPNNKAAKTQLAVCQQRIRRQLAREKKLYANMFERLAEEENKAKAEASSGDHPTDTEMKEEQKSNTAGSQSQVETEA

Sequence of Peptidyl-prolyl cis-trans isomerase FKBP8 (Q14318 whole entry): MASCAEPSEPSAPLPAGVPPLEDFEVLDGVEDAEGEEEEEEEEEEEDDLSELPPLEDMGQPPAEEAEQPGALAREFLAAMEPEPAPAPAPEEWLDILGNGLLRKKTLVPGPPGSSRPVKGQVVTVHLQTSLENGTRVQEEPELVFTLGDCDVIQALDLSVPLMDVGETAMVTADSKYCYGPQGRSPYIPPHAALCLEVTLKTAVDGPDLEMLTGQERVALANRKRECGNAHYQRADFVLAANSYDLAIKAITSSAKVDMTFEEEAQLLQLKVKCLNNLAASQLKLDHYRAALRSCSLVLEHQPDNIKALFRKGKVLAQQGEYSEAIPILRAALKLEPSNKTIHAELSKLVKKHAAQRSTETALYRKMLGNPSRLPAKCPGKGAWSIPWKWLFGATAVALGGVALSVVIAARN

Cc1sc(NC(=O)CCCC(=O)Nc2sc(C)c(C)c2C(N)=O)c(C(N)=O)c1C
IC50 [1]: 2 µM | IC50 [2]: 2000 nM | IC50 [3]: 7 µM | IC50 [4]: 4 µM

COC(=O)c1c(NC(=O)CSc2nnc(-c3ccco3)c(-c3ccco3)n2)sc(C)c1C
IC50 [5]: 1500 nM | IC50 [1]: 4 µM | Kd [6]: 48.4 µM | IC50 [7]: 500 nM | IC50 [3]: 6 µM | IC50 [4]: 2.5 µM | Kd [8]: 745 µM
